Measured values: the CheMixHub ionic liquid set
± gives the uncertainty stated by the source.

Test: xn = mol fraction of the nth substance listed
Settings: for viscosity: 100 kPa

CC(C)=O + CCCC[n+]1ccn(C)c1.F[B-](F)(F)F
Settings | electrical conductivity [S/m]
296.15 K, 101 kPa, x1 = 1 | 0.05 ± 0.01

x2 = 0
Settings | viscosity [mPa·s]
303.15 K | 0.303 ± 0.004
313.15 K | 0.276 ± 0.003
323.15 K | 0.255 ± 0.003

CCCC[N+](C)(C)C.O=S(=O)([N-]S(=O)(=O)C(F)(F)F)C(F)(F)F + O=S(=O)([N-]S(=O)(=O)C(F)(F)F)C(F)(F)F.[Li+] + O
viscosity [mPa·s]
Settings | 293.15 K | 298.15 K | 303.15 K | 313.15 K | 323.15 K | 333.15 K | 343.15 K | 353.15 K | 363.15 K
x2 = 0.2745, x1 = 0.2745 | 100 ± 10 | 78 ± 7.9 | 59 ± 5.9 | 38.1 ± 3.8 | 26.5 ± 2.7 | 19 ± 1.9 | 14.2 ± 1.4 | 10.9 ± 1.1 | 8.61 ± 0.87
x2 = 0.3106, x1 = 0.2745 | 150 ± 16 | 115 ± 12 | 88.9 ± 9.1 | 53.9 ± 5.4 | 35.5 ± 3.6 | 24.7 ± 2.5 | 18.1 ± 1.8 | 13.7 ± 1.4 | 10.6 ± 1.1
x2 = 0.3509, x1 = 0.2745 | 264 ± 30 | 192 ± 21 | 145 ± 15 | 87.4 ± 8.9 | 51 ± 5.1 | 34.7 ± 3.5 | 24.6 ± 2.5 | 18.2 ± 1.8 | 13.9 ± 1.4
x2 = 0.3868, x1 = 0.2745 | 341 ± 40 | 245 ± 28 | 182 ± 20 | 106 ± 11 | 65.4 ± 6.6 | 43.1 ± 4.3 | 30.1 ± 3 | 21.3 ± 2.1 | 16.5 ± 1.7
x2 = 0.4308, x1 = 0.2745 | 494 ± 61 | 401 ± 48 | 289 ± 33 | 162 ± 17 | 99 ± 10 | 58.8 ± 5.9 | 40.6 ± 4.1 | 28.8 ± 2.9 | 21.2 ± 2.1
